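Cells were grown in 96-well plates and exposed to each compound for 48 hours at five concentrations; endpoints were interpolated linearly between bracketing concentrations, or set to the highest concentration if not reached. At the TGI there is no net growth.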
Assays:
Assay in all cases: NCI anticancer screen, dose series, 48 h
786-0 renal = test system: 786-0 renal
A498 renal = test system: A498 renal
A549 NSCLC = test system: A549 NSCLC
BT-549 breast = test system: BT-549 breast
CAKI-1 renal = test system: CAKI-1 renal
CCRF-CEM leukemia = test system: CCRF-CEM leukemia
COLO 205 colon = test system: COLO 205 colon
DU-145 prostate = test system: DU-145 prostate
EKVX NSCLC = test system: EKVX NSCLC
HCC-2998 colon = test system: HCC-2998 colon
HCT-116 colon = test system: HCT-116 colon
HCT-15 colon = test system: HCT-15 colon
HL-60(TB) leukemia = test system: HL-60(TB) leukemia
HOP-62 NSCLC = test system: HOP-62 NSCLC
HOP-92 NSCLC = test system: HOP-92 NSCLC
HS 578T breast = test system: HS 578T breast
HT29 colon = test system: HT29 colon
IGROV1 ovarian = test system: IGROV1 ovarian
K-562 leukemia = test system: K-562 leukemia
KM12 colon = test system: KM12 colon
LOX IMVI melanoma = test system: LOX IMVI melanoma
M14 melanoma = test system: M14 melanoma
MALME-3M melanoma = test system: MALME-3M melanoma
MCF7 breast = test system: MCF7 breast
MDA-MB-231 breast = test system: MDA-MB-231 breast
MDA-MB-435 = test system: MDA-MB-435
MDA-N = test system: MDA-N
MOLT-4 leukemia = test system: MOLT-4 leukemia
NCI-H226 lung = test system: NCI-H226 lung
NCI-H23 lung = test system: NCI-H23 lung
NCI-H460 lung = test system: NCI-H460 lung
NCI/ADR-RES ovarian = test system: NCI/ADR-RES ovarian
OVCAR-3 ovarian = test system: OVCAR-3 ovarian
OVCAR-4 ovarian = test system: OVCAR-4 ovarian
OVCAR-5 ovarian = test system: OVCAR-5 ovarian
OVCAR-8 ovarian = test system: OVCAR-8 ovarian
PC-3 prostate = test system: PC-3 prostate
RPMI-8226 leukemia = test system: RPMI-8226 leukemia
RXF 393 renal = test system: RXF 393 renal
SF-268 CNS = test system: SF-268 CNS
SF-295 CNS = test system: SF-295 CNS
SF-539 CNS = test system: SF-539 CNS
SK-MEL-2 melanoma = test system: SK-MEL-2 melanoma
SK-MEL-28 melanoma = test system: SK-MEL-28 melanoma
SK-MEL-5 melanoma = test system: SK-MEL-5 melanoma
SK-OV-3 ovarian = test system: SK-OV-3 ovarian
SN12C renal = test system: SN12C renal
SNB-19 CNS = test system: SNB-19 CNS
SNB-75 CNS = test system: SNB-75 CNS
SR leukemia = test system: SR leukemia
SW-620 colon = test system: SW-620 colon
T-47D breast = test system: T-47D breast
U251 CNS = test system: U251 CNS
UACC-257 melanoma = test system: UACC-257 melanoma
UACC-62 melanoma = test system: UACC-62 melanoma
UO-31 renal = test system: UO-31 renal
ACHN renal = test system: ACHN renal
NCI-H522 lung = test system: NCI-H522 lung
TK-10 renal = test system: TK-10 renal

Molecule `CCOC(=O)c1cc(Br)c(-c2onc(C)c2Br)[nH]1` has a TGI (786-0 renal) of 59.3 µM, a TGI (A498 renal) of over 100 µM and a TGI (A549 NSCLC) of over 100 µM. The TGI (BT-549 breast) was over 100 µM, the TGI (CAKI-1 renal) was over 100 µM and the TGI (CCRF-CEM leukemia) was over 100 µM. It also gave a TGI (COLO 205 colon) of over 100 µM, a TGI (DU-145 prostate) of over 100 µM and a TGI (EKVX NSCLC) of over 100 µM. The TGI (HCC-2998 colon) was over 100 µM, the TGI (HCT-116 colon) was over 100 µM and the TGI (HCT-15 colon) was over 100 µM. It also gave a TGI (HL-60(TB) leukemia) of over 100 µM, a TGI (HOP-62 NSCLC) of 49.9 µM and a TGI (HOP-92 NSCLC) of over 100 µM. It also gave a TGI (HS 578T breast) of over 100 µM, a TGI (HT29 colon) of over 100 µM and a TGI (IGROV1 ovarian) of over 100 µM. For the same molecule, the TGI (K-562 leukemia) was over 100 µM, the TGI (KM12 colon) was over 100 µM and the TGI (LOX IMVI melanoma) was over 100 µM. For the same molecule, the TGI (M14 melanoma) was over 100 µM, the TGI (MALME-3M melanoma) was over 100 µM and the TGI (MCF7 breast) was over 100 µM. The TGI (MDA-MB-231 breast) was 45.5 µM, the TGI (MDA-MB-435) was over 100 µM and the TGI (MDA-N) was over 100 µM. It also gave a TGI (MOLT-4 leukemia) of over 100 µM, a TGI (NCI-H226 lung) of over 100 µM and a TGI (NCI-H23 lung) of over 100 µM. It also gave a TGI (NCI-H460 lung) of over 100 µM, a TGI (NCI/ADR-RES ovarian) of over 100 µM and a TGI (OVCAR-3 ovarian) of over 100 µM. It also gave a TGI (OVCAR-4 ovarian) of over 100 µM, a TGI (OVCAR-5 ovarian) of over 100 µM and a TGI (OVCAR-8 ovarian) of 82.6 µM. It also gave a TGI (PC-3 prostate) of over 100 µM, a TGI (RPMI-8226 leukemia) of over 100 µM and a TGI (RXF 393 renal) of 38.7 µM. The TGI (SF-268 CNS) was over 100 µM, the TGI (SF-295 CNS) was over 100 µM and the TGI (SF-539 CNS) was over 100 µM. The TGI (SK-MEL-2 melanoma) was over 100 µM, the TGI (SK-MEL-28 melanoma) was over 100 µM and the TGI (SK-MEL-5 melanoma) was over 100 µM. It also gave a TGI (SK-OV-3 ovarian) of 74.4 µM, a TGI (SN12C renal) of over 100 µM and a TGI (SNB-19 CNS) of 74.8 µM. It also gave a TGI (SNB-75 CNS) of over 100 µM, a TGI (SR leukemia) of over 100 µM and a TGI (SW-620 colon) of over 100 µM. For the same molecule, the TGI (T-47D breast) was over 100 µM, the TGI (U251 CNS) was 42.6 µM and the TGI (UACC-257 melanoma) was over 100 µM. It also gave a TGI (UACC-62 melanoma) of over 100 µM and a TGI (UO-31 renal) of over 100 µM.

`O=[N+]([O-])c1ccc(Cl)c(CNc2ncnc3c2ncn3C2CCCCO2)c1` (configuration not stated) gave a TGI (786-0 renal) of over 100 µM, a TGI (A498 renal) of 43.9 µM and a TGI (A549 NSCLC) of over 100 µM. For the same molecule, the TGI (ACHN renal) was over 100 µM, the TGI (BT-549 breast) was over 100 µM and the TGI (CAKI-1 renal) was over 100 µM. The TGI (COLO 205 colon) was over 100 µM, the TGI (DU-145 prostate) was over 100 µM and the TGI (EKVX NSCLC) was over 100 µM. For the same molecule, the TGI (HCT-116 colon) was over 100 µM, the TGI (HCT-15 colon) was over 100 µM and the TGI (HL-60(TB) leukemia) was 73.2 µM. The TGI (HOP-62 NSCLC) was over 100 µM, the TGI (HOP-92 NSCLC) was over 100 µM and the TGI (HS 578T breast) was over 100 µM. For the same molecule, the TGI (HT29 colon) was over 100 µM, the TGI (IGROV1 ovarian) was over 100 µM and the TGI (K-562 leukemia) was over 100 µM. The TGI (KM12 colon) was over 100 µM, the TGI (LOX IMVI melanoma) was over 100 µM and the TGI (M14 melanoma) was over 100 µM. For the same molecule, the TGI (MALME-3M melanoma) was over 100 µM, the TGI (MCF7 breast) was 62 µM and the TGI (MDA-MB-231 breast) was over 100 µM. The TGI (MDA-MB-435) was 30.3 µM, the TGI (MDA-N) was 27 µM and the TGI (MOLT-4 leukemia) was 88.2 µM. For the same molecule, the TGI (NCI-H226 lung) was 86.6 µM, the TGI (NCI-H23 lung) was over 100 µM and the TGI (NCI-H460 lung) was 52.2 µM. It also gave a TGI (NCI-H522 lung) of over 100 µM, a TGI (NCI/ADR-RES ovarian) of over 100 µM and a TGI (OVCAR-3 ovarian) of over 100 µM. It also gave a TGI (OVCAR-4 ovarian) of over 100 µM, a TGI (OVCAR-5 ovarian) of over 100 µM and a TGI (OVCAR-8 ovarian) of over 100 µM. It also gave a TGI (PC-3 prostate) of over 100 µM, a TGI (RPMI-8226 leukemia) of over 100 µM and a TGI (RXF 393 renal) of 42.6 µM. The TGI (SF-268 CNS) was over 100 µM, the TGI (SF-295 CNS) was over 100 µM and the TGI (SF-539 CNS) was 66.1 µM. The TGI (SK-MEL-2 melanoma) was over 100 µM, the TGI (SK-MEL-28 melanoma) was over 100 µM and the TGI (SK-MEL-5 melanoma) was 52.3 µM. It also gave a TGI (SK-OV-3 ovarian) of over 100 µM, a TGI (SN12C renal) of over 100 µM and a TGI (SNB-19 CNS) of over 100 µM. For the same molecule, the TGI (SNB-75 CNS) was over 100 µM, the TGI (SR leukemia) was 64.4 µM and the TGI (SW-620 colon) was over 100 µM. For the same molecule, the TGI (T-47D breast) was over 100 µM, the TGI (TK-10 renal) was over 100 µM and the TGI (U251 CNS) was over 100 µM. It also gave a TGI (UACC-62 melanoma) of over 100 µM and a TGI (UO-31 renal) of over 100 µM.

— PubChem BioAssay (NCI)
